Test [1] relates to B16. The experiment in a line: Cytotoxicity against mouse B16 cells after 48 hrs by MTT assay. The format is functional, cell-based. The conditions noted are these: B16, 48 h.
The test system of test [2] is DU-145. Kind of test: Cytotoxicity against human DU145 cells after 48 hrs by MTT assay. The following applies: DU-145, 48 h. The format is functional, cell-based. (Tetrazolium assays rely on reduction of a dye to a coloured formazan, in cell work by metabolically active cells.)
For test [3], the system named is MCF7. The experiment in a line: cells. The following applies: Homo sapiens, MCF7, 48 h.
Description: Cytotoxicity against human MCF7 cells after 48 hrs by MTT assay
Test [4] can be described thus: Cytotoxicity against human ME180 cells after 48 hrs by MTT assay. The format is functional, cell-based. The following applies: ME-180, 48 h.

SMILES strings stand for the structures.

Turning to `COc1cc(-n2c(=O)n(-c3nc4ccc([N+](=O)[O-])cc4s3)c(=O)c3cccnc32)cc(OC)c1OC`, the IC50 was 19.9 µM in test [1], above 20 µM in test [2], above 20 µM in test [3] and above 20 µM in test [4].

Regarding `O=c1[nH]cc(F)c(=O)[nH]1` [FLUOROURACIL], the results for the concentration for half-maximal inhibition (IC50) in test [1], in test [3] and in test [4] were 4.2 µM, 3.5 µM and 4.9 µM, respectively.

Broadly, the IC50 is the concentration needed to halve the response being measured. Read a low IC50 as greater potency.

(Values after ChEMBL document CHEMBL3098081, “Synthesis and anticancer potential of benzothiazole linked phenylpyridopyrimidinones and their diones as mitochondrial apoptotic inducers” (Bioorg Med Chem Lett, 2014).)
